The subject of this assay is Dirofilaria immitis L1 larvae. The experiment in a line: Screening against microfilaria (L1 larvae) of Dirofilaria immitis, survival/motility. It counts as in vivo. The following applies: 72 h, read-out: Ranked D. immitis L1 MED Activity. On the procedure:
Example 44. Screening of Compounds Against Microfilaria of Dirofilaria immitis
To evaluate the efficacy of compounds of the disclosure against Dirofilaria immitis, L1 stage larvae were exposed to various concentrations of the compounds to determine survival or paralysis of the larvae. Results are reported as the minimum effective dose (MED), defined as the concentration required to eliminate motility.
To perform the assay, microfilaria of Dirofilaria immitis were added to the wells of a microtiter plate containing buffer and the test compounds in DMSO. Microfilaria exposed to DMSO alone served as controls. An assessment was conducted at 72 hours to determine survival of the microfilaria.

For 15 compounds, minimal effective concentration results are on record in US20260365642A1, “ANTIPARASITIC COMPOUNDS” (Animol Discovery, Inc., priority 2023, published 2026).

Structures are written as SMILES. Some results are limits rather than exact numbers.

On to `CN(Cc1ccc(S(C)(=O)=O)cc1)c1cc(N2CCCC3(CCCCC3)C2)nc(C(F)(F)F)n1` [Compound 6, N-methyl-N-(4-(methylsulfonyl)benzyl)-6-(2-azaspiro[5.5]undecan-2-yl)-2-(trifluoromethyl)pyrimidin-4-amine], for which the minimal effective concentration was above 100000 µM. As to `COC(=O)N1CCCC(CN(C)c2cc(N3CCCC4(CCCCC4)C3)nc(C(F)(F)F)n2)C1` (stereo not drawn) [Compound 36, methyl 3-(((6-(2-azaspiro[5.5]undecan-2-yl)-2-(trifluoromethyl)pyrimidin-4-yl)(methyl)amino)methyl)piperidine-1-carboxylate], the minimal effective concentration was above 100000 µM. In the case of `CS(=O)(=O)N1CCOC(CNc2cc(N3CCCC4(CCCCC4)C3)nc(C(F)(F)F)n2)C1` (stereo not drawn) [Compound 15, N-((4-(methylsulfonyl)morpholin-2-yl)methyl)-6-(2-azaspiro[5.5]undecan-2-yl)-2-(trifluoromethyl)pyrimidin-4-amine], the minimal effective concentration is below 10000 µM.

Consider `CN(CC1CN(S(C)(=O)=O)CCO1)c1cc(N2CCSC3(CCCCC3)C2)nc(C(F)(F)F)n1` (stereo not drawn) [Compound 28, N-methyl-N-((4-(methylsulfonyl)morpholin-2-yl)methyl)-6-(1-thia-4-azaspiro[5.5]undecan-4-yl)-2-(trifluoromethyl)pyrimidin-4-amine], for which the minimal effective concentration was below 10000 µM. `CS(=O)(=O)N1CCOC2CN(c3cc(N4CCOC5(CCCCC5)C4)nc(C(F)(F)F)n3)CCC21` (stereo not drawn) [Compound 34, 4-(6-(1-(methylsulfonyl)octahydro-6H-pyrido[3,4-b][1,4]oxazin-6-yl)-2-(trifluoromethyl)pyrimidin-4-yl)-1-oxa-4-azaspiro[5.5]undecane]: the minimal effective concentration was below 30000 µM. On to `CN(CC1CN(S(C)(=O)=O)CCO1)c1cc(N2CCC(F)(F)C3(CCCCC3)C2)nc(C(F)(F)F)n1` (stereo not drawn) [Compound 23, 6-(5,5-difluoro-2-azaspiro[5.5]undecan-2-yl)-N-methyl-N-((4-(methylsulfonyl)morpholin-2-yl)methyl)-2-(trifluoromethyl)pyrimidin-4-amine], for which the minimal effective concentration is below 10000 µM. Turning to `CN(Cc1ccc(S(=O)(=O)N(C)C)cc1)c1cc(N2CCCC3(CCCCC3)C2)nc(C(F)(F)F)n1` [Compound 5, 4-(((6-(2-azaspiro[5.5]undecan-2-yl)-2-(trifluoromethyl)pyrimidin-4-yl)(methyl)amino)methyl)-N,N-dimethylbenzenesulfonamide], the minimal effective concentration was above 100000 µM. For `CCN(CC1CN(S(C)(=O)=O)CCO1)c1cc(N2CCOC3(CCCCC3)C2)nc(C(F)(F)F)n1` (stereo not drawn) [Compound 20, N-ethyl-N-((4-(methylsulfonyl)morpholin-2-yl)methyl)-6-(1-oxa-4-azaspiro[5.5]undecan-4-yl)-2-(trifluoromethyl)pyrimidin-4-amine], the minimal effective concentration is below 10000 µM. Consider `CN(CC1CN(S(C)(=O)=O)CCS1)c1cc(N2CCCC3(CCCCC3)C2)nc(C(F)(F)F)n1` (stereo not drawn) [Compound 43, N-methyl-N-((4-(methylsulfonyl)thiomorpholin-2-yl)methyl)-6-(2-azaspiro[5.5]undecan-2-yl)-2-(trifluoromethyl)pyrimidin-4-amine], for which the minimal effective concentration was above 100000 µM.

`CN(c1cc(N2CCCC3(CCCCC3)C2)nc(C(F)(F)F)n1)C1CC2(CC(NS(C)(=O)=O)C2)C1` (stereo not drawn) [Compound 7, N-(6-((6-(2-azaspiro[5.5]undecan-2-yl)-2-(trifluoromethyl)pyrimidin-4-yl)(methyl)amino)spiro[3.3]heptan-2-yl)methanesulfonamide]: the minimal effective concentration is above 100000 µM.

Consider `CN(CCC1CN(S(C)(=O)=O)CCO1)c1cc(N2CCCC3(CCCCC3)C2)nc(C(F)(F)F)n1` (stereo not drawn) [Compound 44, N-methyl-N-(2-(4-(methylsulfonyl)morpholin-2-yl)ethyl)-6-(2-azaspiro[5.5]undecan-2-yl)-2-(trifluoromethyl)pyrimidin-4-amine], for which the minimal effective concentration was above 100000 µM.

Take `CN(CC1CN(S(C)(=O)=O)CCO1)c1cc(N2CCS(=O)(=O)C3(CCCCC3)C2)nc(C(F)(F)F)n1` (stereo not drawn) [Compound 27, 4-(6-(methyl((4-(methylsulfonyl)morpholin-2-yl)methyl)amino)-2-(trifluoromethyl)pyrimidin-4-yl)-1-thia-4-azaspiro[5.5]undecane 1,1-dioxide]: the minimal effective concentration is below 30000 µM. As to `CN(CC1CN(S(C)(=O)=O)CCO1)c1cc(N2CC3CC(C2)O3)nc(C(F)(F)F)n1` (stereo not drawn) [Compound 18, 6-(6-oxa-3-azabicyclo[3.1.1]heptan-3-yl)-N-methyl-N-((4-(methylsulfonyl)morpholin-2-yl)methyl)-2-(trifluoromethyl)pyrimidin-4-amine], the minimal effective concentration is above 100000 µM. As for `CN(CC1CN(S(C)(=O)=O)CCS1(=O)=O)c1cc(N2CCCC3(CCCCC3)C2)nc(C(F)(F)F)n1` (stereo not drawn) [Compound 42, 2-(((6-(2-azaspiro[5.5]undecan-2-yl)-2-(trifluoromethyl)pyrimidin-4-yl)(methyl)amino)methyl)-4-(methylsulfonyl)thiomorpholine 1,1-dioxide], the minimal effective concentration is above 100000 µM. The result for `CN(C)S(=O)(=O)N1CC2(CN(c3cc(N4CCCC5(CCCCC5)C4)nc(C(F)(F)F)n3)C2)C1` [Compound 10, 6-(6-(2-azaspiro[5.5]undecan-2-yl)-2-(trifluoromethyl)pyrimidin-4-yl)-N,N-dimethyl-2,6-diazaspiro[3.3]heptane-2-sulfonamide] reads above 100000 µM.
